These results are taken from patent publication US20230085440A1, “METHODS OF PREVENTING AND TREATING PAIN AND ASSOCIATED SYMPTOMS” (Ethismos Research, Inc., priority 2021, published 2023).

This assay concerns the target T1, 5-HT2c receptor (Homo sapiens, UniProt P28335).
T1 sequence (P28335 33-458): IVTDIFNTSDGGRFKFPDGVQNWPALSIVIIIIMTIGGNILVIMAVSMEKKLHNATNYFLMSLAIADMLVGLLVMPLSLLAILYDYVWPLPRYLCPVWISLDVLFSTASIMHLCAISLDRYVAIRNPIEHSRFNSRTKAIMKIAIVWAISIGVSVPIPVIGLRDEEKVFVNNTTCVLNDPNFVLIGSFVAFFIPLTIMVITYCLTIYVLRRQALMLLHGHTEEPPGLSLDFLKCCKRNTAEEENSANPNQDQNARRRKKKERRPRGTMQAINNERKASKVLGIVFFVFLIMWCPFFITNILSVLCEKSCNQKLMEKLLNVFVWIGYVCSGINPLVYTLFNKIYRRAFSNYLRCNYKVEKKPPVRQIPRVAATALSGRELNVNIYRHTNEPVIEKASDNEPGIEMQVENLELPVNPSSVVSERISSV
The assay is described as follows: [35S]guanosine 5-O-(3-thio)triphosphate binding (5-HT2c partial agonism). The class given is biochemical. As to conditions: [35S]GTPgammaS binding, partial agonist.

For orientation: Emax means the size of the effect at its maximum, as opposed to the concentration needed.

Structures are written as SMILES.

`Clc1ccc([C@]23CNC[C@H]2C3)cc1Cl` [amitifadine] yielded an Emax of 52%.
